Tests used:
Assay in all cases: Kinase panel (Dundee profiling)
Type in all cases: biochemical
Conditions in all cases: read-out: % residual kinase activity
PKBb = PKBb (Homo sapiens, UniProt P31751)
Experimental: (§1) The kinase selectivity of ZT-1a was further assessed using standard radioisotopic enzymatic assays against a panel of 140 recombinant kinases (Dundee profiling, Table 2) (Bain et al. (2007) The Biochemical journal 408, 297-315). ZT-1a at a concentration of 10 μM inhibited only MAPKAP-K2 activity 85±7% compared to DMSO control, representing high kinase selectivity.
(§2) Referring to Table 2, ZT-1a was tested at 10 and 1 μM against a panel of 140 recombinant kinases in an enzymatic activity-based assay performed by the International Centre for Kinase Profiling in the MRC Protein Phosphorylation and Ubiquitylation Unit. Values represent % residual kinase activity (mean+/−SEM, n=3). Kinases labelled with an asterick* are inhibited ≥50% by ZT-1a.

PKCz = PKCz (Homo sapiens, UniProt Q05513)
Experimental: as §1, §2

EPH-B2 = EPH-B2 (Homo sapiens, UniProt P29323)
Experimental: as §1, §2

PLK1 = PLK1 (Homo sapiens, UniProt P53350)
Experimental: as §1, §2

BRSK2 = BRSK2 (Homo sapiens, UniProt Q8IWQ3)
Experimental: as §1, §2

EPH-B3 = EPH-B3 (Homo sapiens, UniProt P54753)
Experimental: as §1, §2

NUAK1 = NUAK1 (Homo sapiens, UniProt O60285)
Experimental: as §1, §2

PAK5 = PAK5 (Homo sapiens, UniProt Q9P286)
Experimental: as §1, §2

RSK2 = RSK2 (Homo sapiens, UniProt P51812)
Experimental: as §1, §2

MAPKAP-K3 = MAPKAP-K3 (Homo sapiens, UniProt Q16644)
Experimental: as §1, §2

TrkA = TrkA (Homo sapiens, UniProt P04629)
Experimental: as §1, §2

PDGFRA = PDGFRA (Homo sapiens, UniProt P16234)
Experimental: as §1, §2

IRR = IRR (Homo sapiens, UniProt P14616)
Experimental: as §1, §2

STK33 = STK33 (Homo sapiens, UniProt Q9BYT3)
Experimental: as §1, §2

ASK1 = ASK1 (Homo sapiens, UniProt Q99683)
Experimental: as §1, §2

CK1γ2 = CK1γ2 (Homo sapiens, UniProt P78368)
Experimental: as §1, §2

MKK2 = MKK2 (Homo sapiens, UniProt P36507)
Experimental: as §1, §2

HIPK3 = HIPK3 (Homo sapiens, UniProt Q9H422)
Experimental: as §1, §2

EF2K = EF2K (Homo sapiens, UniProt O00418)
Experimental: as §1, §2

p38d MAPK = p38d MAPK (Homo sapiens, UniProt O15264)
Experimental: as §1, §2

JNK3 = JNK3 (Homo sapiens, UniProt P53779)
Experimental: as §1, §2

PIM3 = PIM3 (Homo sapiens, UniProt Q86V86)
Experimental: as §1, §2

CK2 = CK2 (Homo sapiens, UniProt P68400)
Experimental: as §1, §2

TAO1 = TAO1 (Homo sapiens, UniProt Q7L7X3)
Experimental: as §1, §2

YES1 = YES1 (Homo sapiens, UniProt P07947)
Experimental: as §1, §2

PKBa = PKBa (Homo sapiens, UniProt P31749, S473D)
Experimental: as §1, §2

PKCγ = PKCγ (Homo sapiens, UniProt P05129)
Experimental: as §1, §2

MARK3 = MARK3 (Homo sapiens, UniProt P27448)
Experimental: as §1, §2

CDK9-Cyclin T1 = CDK9-Cyclin T1 (Homo sapiens, UniProt P50750)
Experimental: as §1, §2

EIF2AK3 = EIF2AK3 (Homo sapiens, UniProt Q9NZJ5)
Experimental: as §1, §2

PHK = PHK (Homo sapiens, UniProt Q16816)
Experimental: as §1, §2

MARK1 = MARK1 (Homo sapiens, UniProt Q9P0L2)
Experimental: as §1, §2

Chain of EPH-B2 (P29323 19-1055, species assumed): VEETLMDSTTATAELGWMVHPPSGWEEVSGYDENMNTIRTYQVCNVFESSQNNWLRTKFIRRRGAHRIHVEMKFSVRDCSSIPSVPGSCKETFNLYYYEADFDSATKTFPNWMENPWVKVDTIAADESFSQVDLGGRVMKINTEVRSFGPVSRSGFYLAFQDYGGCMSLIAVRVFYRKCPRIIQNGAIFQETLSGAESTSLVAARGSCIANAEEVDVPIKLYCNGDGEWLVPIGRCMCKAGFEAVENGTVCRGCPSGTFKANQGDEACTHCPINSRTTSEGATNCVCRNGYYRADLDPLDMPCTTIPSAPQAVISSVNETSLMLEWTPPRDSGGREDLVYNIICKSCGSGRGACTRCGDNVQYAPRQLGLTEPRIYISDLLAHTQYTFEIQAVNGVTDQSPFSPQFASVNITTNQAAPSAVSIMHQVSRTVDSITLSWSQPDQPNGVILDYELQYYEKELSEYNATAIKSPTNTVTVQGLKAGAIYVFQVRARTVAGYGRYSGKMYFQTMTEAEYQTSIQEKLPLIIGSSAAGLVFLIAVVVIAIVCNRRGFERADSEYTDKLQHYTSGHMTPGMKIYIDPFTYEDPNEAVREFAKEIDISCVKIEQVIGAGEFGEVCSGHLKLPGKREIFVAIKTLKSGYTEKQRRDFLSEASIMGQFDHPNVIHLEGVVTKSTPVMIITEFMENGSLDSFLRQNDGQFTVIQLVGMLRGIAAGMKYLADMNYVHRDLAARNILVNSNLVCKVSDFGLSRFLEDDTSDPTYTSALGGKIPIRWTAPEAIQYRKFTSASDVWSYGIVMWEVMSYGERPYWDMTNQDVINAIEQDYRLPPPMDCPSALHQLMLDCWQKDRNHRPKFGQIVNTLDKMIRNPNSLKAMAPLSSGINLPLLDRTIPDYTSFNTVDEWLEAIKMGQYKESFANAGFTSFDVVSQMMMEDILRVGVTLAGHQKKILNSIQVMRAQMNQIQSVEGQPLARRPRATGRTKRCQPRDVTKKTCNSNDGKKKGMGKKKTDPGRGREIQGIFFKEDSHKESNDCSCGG
Chain of RSK2 (P51812 whole entry, species assumed): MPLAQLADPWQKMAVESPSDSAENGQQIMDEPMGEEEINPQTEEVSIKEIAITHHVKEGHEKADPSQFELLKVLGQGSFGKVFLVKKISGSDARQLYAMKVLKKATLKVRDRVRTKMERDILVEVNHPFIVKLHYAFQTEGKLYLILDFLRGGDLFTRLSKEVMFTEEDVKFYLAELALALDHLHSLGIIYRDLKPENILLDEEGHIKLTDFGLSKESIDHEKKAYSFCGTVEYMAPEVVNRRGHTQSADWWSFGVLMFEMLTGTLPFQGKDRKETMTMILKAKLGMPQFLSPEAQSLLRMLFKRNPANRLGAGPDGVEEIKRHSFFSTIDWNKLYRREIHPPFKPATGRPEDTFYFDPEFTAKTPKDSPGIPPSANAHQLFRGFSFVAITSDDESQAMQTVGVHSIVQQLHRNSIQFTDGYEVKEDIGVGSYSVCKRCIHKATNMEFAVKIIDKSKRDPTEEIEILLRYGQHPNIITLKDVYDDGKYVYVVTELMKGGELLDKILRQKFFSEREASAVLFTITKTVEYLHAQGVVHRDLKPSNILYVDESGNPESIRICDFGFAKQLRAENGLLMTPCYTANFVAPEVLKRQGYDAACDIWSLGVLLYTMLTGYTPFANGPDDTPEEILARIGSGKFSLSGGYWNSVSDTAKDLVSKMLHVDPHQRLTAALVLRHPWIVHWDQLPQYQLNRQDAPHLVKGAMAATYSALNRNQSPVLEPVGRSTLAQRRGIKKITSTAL
Chain of NUAK1 (O60285 whole entry, species assumed): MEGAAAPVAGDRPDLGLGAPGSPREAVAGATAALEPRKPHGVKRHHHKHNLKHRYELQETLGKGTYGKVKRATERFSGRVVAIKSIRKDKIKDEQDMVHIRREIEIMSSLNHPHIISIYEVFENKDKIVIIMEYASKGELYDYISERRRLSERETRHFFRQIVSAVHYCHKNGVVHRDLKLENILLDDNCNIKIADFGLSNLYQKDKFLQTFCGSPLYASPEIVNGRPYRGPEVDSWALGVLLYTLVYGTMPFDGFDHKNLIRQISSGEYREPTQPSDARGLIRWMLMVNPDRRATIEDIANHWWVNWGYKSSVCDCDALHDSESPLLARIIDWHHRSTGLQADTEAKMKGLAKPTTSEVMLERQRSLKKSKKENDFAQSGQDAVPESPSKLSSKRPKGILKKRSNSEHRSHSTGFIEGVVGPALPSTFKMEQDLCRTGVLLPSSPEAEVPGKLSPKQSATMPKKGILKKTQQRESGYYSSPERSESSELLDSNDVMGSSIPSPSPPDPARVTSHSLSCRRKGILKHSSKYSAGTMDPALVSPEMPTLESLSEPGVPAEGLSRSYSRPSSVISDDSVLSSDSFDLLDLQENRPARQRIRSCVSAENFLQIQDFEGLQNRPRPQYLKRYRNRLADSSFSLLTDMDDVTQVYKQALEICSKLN
Chain of PKCz (Q05513 whole entry): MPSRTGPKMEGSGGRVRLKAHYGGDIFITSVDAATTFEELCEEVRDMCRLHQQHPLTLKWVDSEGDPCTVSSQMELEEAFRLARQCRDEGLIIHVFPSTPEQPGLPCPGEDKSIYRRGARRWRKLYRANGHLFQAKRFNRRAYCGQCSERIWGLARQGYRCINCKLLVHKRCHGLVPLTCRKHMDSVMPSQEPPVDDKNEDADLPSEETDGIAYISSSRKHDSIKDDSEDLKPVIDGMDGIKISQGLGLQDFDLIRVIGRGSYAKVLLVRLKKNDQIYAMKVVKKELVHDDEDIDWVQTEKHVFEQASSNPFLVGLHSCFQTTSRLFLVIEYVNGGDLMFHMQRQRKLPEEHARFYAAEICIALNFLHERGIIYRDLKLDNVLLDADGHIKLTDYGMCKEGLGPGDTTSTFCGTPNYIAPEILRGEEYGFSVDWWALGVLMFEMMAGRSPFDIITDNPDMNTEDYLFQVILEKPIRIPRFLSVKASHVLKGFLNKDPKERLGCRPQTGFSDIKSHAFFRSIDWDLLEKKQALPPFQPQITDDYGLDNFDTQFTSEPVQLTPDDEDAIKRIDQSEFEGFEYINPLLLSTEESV
Chain of TAO1 (Q7L7X3 whole entry): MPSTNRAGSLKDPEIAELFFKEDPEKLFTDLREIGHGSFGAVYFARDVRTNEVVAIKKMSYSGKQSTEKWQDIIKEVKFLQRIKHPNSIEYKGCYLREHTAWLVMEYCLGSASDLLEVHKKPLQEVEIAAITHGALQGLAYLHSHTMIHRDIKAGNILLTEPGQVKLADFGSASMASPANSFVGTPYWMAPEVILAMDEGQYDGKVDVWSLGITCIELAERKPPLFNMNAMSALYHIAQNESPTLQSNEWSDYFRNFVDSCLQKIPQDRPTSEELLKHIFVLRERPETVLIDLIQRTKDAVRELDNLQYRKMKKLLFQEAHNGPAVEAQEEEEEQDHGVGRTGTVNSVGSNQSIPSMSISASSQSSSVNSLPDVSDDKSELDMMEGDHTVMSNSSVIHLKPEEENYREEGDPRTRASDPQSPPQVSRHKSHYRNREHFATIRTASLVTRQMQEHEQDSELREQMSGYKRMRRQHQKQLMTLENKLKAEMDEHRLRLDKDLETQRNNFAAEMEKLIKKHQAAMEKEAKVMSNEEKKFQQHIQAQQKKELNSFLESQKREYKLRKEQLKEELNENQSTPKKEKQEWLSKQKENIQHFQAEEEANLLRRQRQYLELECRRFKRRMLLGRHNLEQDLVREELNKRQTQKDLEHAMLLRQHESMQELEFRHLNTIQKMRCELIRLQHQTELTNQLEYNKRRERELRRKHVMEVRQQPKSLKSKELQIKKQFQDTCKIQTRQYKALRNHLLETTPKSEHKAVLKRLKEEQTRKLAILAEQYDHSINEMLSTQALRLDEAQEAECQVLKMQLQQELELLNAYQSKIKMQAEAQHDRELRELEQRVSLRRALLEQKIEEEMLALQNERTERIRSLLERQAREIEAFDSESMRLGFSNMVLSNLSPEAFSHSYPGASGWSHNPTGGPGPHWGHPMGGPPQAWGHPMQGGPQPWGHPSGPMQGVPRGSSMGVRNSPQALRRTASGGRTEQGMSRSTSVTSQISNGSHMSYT
Chain of PDGFRA (P16234 24-1089, species assumed): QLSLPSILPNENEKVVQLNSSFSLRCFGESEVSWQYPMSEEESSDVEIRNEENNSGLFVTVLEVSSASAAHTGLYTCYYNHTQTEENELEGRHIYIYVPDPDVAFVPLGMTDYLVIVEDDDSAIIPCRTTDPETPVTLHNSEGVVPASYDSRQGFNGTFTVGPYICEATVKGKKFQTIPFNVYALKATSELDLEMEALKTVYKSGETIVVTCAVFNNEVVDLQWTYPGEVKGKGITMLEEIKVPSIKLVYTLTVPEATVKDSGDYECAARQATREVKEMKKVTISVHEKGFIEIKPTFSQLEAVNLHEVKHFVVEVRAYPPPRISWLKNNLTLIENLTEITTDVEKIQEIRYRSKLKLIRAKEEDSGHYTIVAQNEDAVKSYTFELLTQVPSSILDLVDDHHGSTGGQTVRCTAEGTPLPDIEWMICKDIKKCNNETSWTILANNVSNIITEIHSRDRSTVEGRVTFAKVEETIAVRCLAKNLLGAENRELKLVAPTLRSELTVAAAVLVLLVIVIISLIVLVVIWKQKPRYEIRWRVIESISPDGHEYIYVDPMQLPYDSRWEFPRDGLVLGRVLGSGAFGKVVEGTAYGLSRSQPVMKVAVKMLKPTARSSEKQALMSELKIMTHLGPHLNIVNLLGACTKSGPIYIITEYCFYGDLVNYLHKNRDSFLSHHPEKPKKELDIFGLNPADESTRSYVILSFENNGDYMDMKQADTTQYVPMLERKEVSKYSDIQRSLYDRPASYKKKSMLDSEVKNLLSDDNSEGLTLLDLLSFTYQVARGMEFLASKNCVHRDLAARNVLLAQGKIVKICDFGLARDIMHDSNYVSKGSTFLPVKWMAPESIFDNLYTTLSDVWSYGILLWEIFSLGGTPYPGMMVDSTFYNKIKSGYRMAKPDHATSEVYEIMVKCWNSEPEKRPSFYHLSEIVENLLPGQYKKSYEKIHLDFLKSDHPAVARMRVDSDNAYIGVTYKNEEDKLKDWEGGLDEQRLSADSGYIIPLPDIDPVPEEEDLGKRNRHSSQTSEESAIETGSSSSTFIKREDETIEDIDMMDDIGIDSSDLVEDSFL

Cc1cc(C(C#N)c2ccc(Cl)cc2)c(Cl)cc1NC(=O)c1cc(Cl)ccc1O (stereo not shown) [ZT-1a, 5-chloro-N-(5-chloro-4-((4-chlorophenyl)(cyano)methyl)-2-methylphenyl)-2-hydroxy-benzamide]
remaining activity at 1 µM (PKBb; 1 μM): 76 ± 14%
remaining activity at 10 µM (PKBb; 10 μM): 51 ± 13%
remaining activity at 1 µM (PKCz; 1 μM): 80 ± 11%
remaining activity at 10 µM (PKCz; 10 μM): 122 ± 28%
remaining activity at 1 µM (EPH-B2; 1 μM): 77 ± 2%
remaining activity at 10 µM (EPH-B2; 10 μM): 81 ± 8%
remaining activity at 1 µM (PLK1; 1 μM): 72 ± 1%
remaining activity at 10 µM (PLK1; 10 μM): 93 ± 21%
remaining activity at 1 µM (BRSK2; 1 μM): 115 ± 14%
remaining activity at 10 µM (BRSK2; 10 μM): 104%
remaining activity at 1 µM (EPH-B3; 1 μM): 88 ± 6%
remaining activity at 10 µM (EPH-B3; 10 μM): 84 ± 6%
remaining activity at 1 µM (NUAK1; 1 μM): 52 ± 7%
remaining activity at 10 µM (NUAK1; 10 μM): 61 ± 16%
remaining activity at 1 µM (PAK5; 1 μM): 93 ± 26%
remaining activity at 10 µM (PAK5; 10 μM): 93 ± 4%
remaining activity at 1 µM (RSK2; 1 μM): 116 ± 5%
remaining activity at 10 µM (RSK2; 10 μM): 101 ± 3%
remaining activity at 1 µM (MAPKAP-K3; 1 μM): 96 ± 26%
remaining activity at 10 µM (MAPKAP-K3; 10 μM): 72 ± 8%
remaining activity at 1 µM (TrkA; 1 μM): 108 ± 9%
remaining activity at 10 µM (TrkA; 10 μM): 91 ± 7%
remaining activity at 1 µM (PDGFRA; 1 μM): 84 ± 11%
remaining activity at 10 µM (PDGFRA; 10 μM): 80 ± 7%
remaining activity at 1 µM (IRR; 1 μM): 105 ± 5%
remaining activity at 10 µM (IRR; 10 μM): 95 ± 4%
remaining activity at 1 µM (STK33; 1 μM): 114 ± 7%
remaining activity at 10 µM (STK33; 10 μM): 100 ± 5%
remaining activity at 1 µM (ASK1; 1 μM): 101 ± 3%
remaining activity at 10 µM (ASK1; 10 μM): 100 ± 11%
remaining activity at 1 µM (CK1γ2; 1 μM): 112 ± 12%
remaining activity at 10 µM (CK1γ2; 10 μM): 124 ± 23%
remaining activity at 1 µM (MKK2; 1 μM): 126 ± 2%
remaining activity at 10 µM (MKK2; 10 μM): 81 ± 27%
remaining activity at 1 µM (HIPK3; 1 μM): 84 ± 3%
remaining activity at 10 µM (HIPK3; 10 μM): 76 ± 2%
remaining activity at 1 µM (EF2K; 1 μM): 104 ± 13%
remaining activity at 10 µM (EF2K; 10 μM): 56 ± 2%
remaining activity at 1 µM (p38d MAPK; 1 μM): 95 ± 1%
remaining activity at 10 µM (p38d MAPK; 10 μM): 112 ± 2%
remaining activity at 1 µM (JNK3; 1 μM): 63 ± 15%
remaining activity at 10 µM (JNK3; 10 μM): 60 ± 10%
remaining activity at 1 µM (PIM3; 1 μM): 115 ± 12%
remaining activity at 10 µM (PIM3; 10 μM): 99 ± 2%
remaining activity at 1 µM (CK2; 1 μM): 72 ± 15%
remaining activity at 10 µM (CK2; 10 μM): 59 ± 16%
remaining activity at 1 µM (TAO1; 1 μM): 66 ± 2%
remaining activity at 10 µM (TAO1; 10 μM): 104 ± 2%
remaining activity at 1 µM (YES1; 1 μM): 109 ± 3%
remaining activity at 10 µM (YES1; 10 μM): 98 ± 7%
remaining activity at 1 µM (PKBa; 1 μM): 104 ± 1%
remaining activity at 10 µM (PKBa; 10 μM): 91 ± 4%
remaining activity at 1 µM (PKCγ; 1 μM): 133 ± 11%
remaining activity at 10 µM (PKCγ; 10 μM): 120 ± 8%
remaining activity at 1 µM (MARK3; 1 μM): 71 ± 6%
remaining activity at 10 µM (MARK3; 10 μM): 68 ± 8%
remaining activity at 1 µM (CDK9-Cyclin T1; 1 μM): 104%
remaining activity at 10 µM (CDK9-Cyclin T1; 10 μM): 108 ± 1%
remaining activity at 1 µM (EIF2AK3; 1 μM): 114 ± 2%
remaining activity at 10 µM (EIF2AK3; 10 μM): 100 ± 3%
remaining activity at 1 µM (PHK; 1 μM): 97 ± 3%
remaining activity at 10 µM (PHK; 10 μM): 107 ± 2%
remaining activity at 1 µM (MARK1; 1 μM): 104 ± 16%
remaining activity at 10 µM (MARK1; 10 μM): 91 ± 5%
